Source: ChEMBL document CHEMBL4196125, “Identification of N-Benzyl 3,5-Dinitrobenzamides Derived from PBTZ169 as Antitubercular Agents” (ACS Med Chem Lett, 2018)
In brackets after ≈: the same amount, converted by molar mass.

Key:
Type in all cases: functional
[1] = test system: Mycobacterium tuberculosis; assay: Antitubercular activity against Mycobacterium tuberculosis H37Rv harboring GFP measured after 7 days by fluorescence assay; settings: 168 h
[2] = test system: Mycobacterium tuberculosis; assay: Antitubercular activity against isoniazid/rifampicin-resistant Mycobacterium tuberculosis 14231 clinical isolate measured after 7 days by microplate alamar blue assay; settings: Mycobacterium tuberculosis, 14231, 168 h
[3] = test system: Mycobacterium tuberculosis; assay: Antitubercular activity against isoniazid/rifampicin-resistant Mycobacterium tuberculosis 12525 clinical isolate measured after 7 days by microplate alamar blue assay; settings: Mycobacterium tuberculosis, 12525, 168 h

Compound	MIC [1] [µg/mL]	MIC90 [2] [µg/mL]	MIC90 [3] [µg/mL]
COc1ccc(OCCNC(=O)c2cc([N+](=O)[O-])cc([N+](=O)[O-])c2)cc1	0.075 (≈ 0.208 µM)	–	–
O=C(NCc1ccc(N2CC3CCCCC3C2)cc1)c1cc([N+](=O)[O-])cc([N+](=O)[O-])c1 (centres undefined)	–	0.125 (≈ 0.294 µM)	0.031 (≈ 0.073 µM)
O=C(NCc1ccc(N2CCSCC2)cc1)c1cc([N+](=O)[O-])cc([N+](=O)[O-])c1	–	0.085 (≈ 0.211 µM)	0.017 (≈ 0.0422 µM)
O=C(NCc1ccc(N2CCC(c3ccc(OC(F)(F)F)cc3)CC2)cc1)c1cc([N+](=O)[O-])cc([N+](=O)[O-])c1	–	0.474 (≈ 0.871 µM)	0.21 (≈ 0.386 µM)
O=C(NCc1ccc(N2CCN(c3ccc(F)cc3)CC2)cc1)c1cc([N+](=O)[O-])cc([N+](=O)[O-])c1	–	0.077 (≈ 0.161 µM)	0.047 (≈ 0.098 µM)
O=C(NCc1ccc(N2CCC(C(F)(F)F)CC2)cc1)c1cc([N+](=O)[O-])cc([N+](=O)[O-])c1	–	0.075 (≈ 0.166 µM)	< 0.016
O=C(NCc1ccc(N2CCC(C(F)(F)F)CC2)cc1)c1cc([N+](=O)[O-])cc(C(F)(F)F)c1	–	> 40	0.138 (≈ 0.29 µM)
NNC(=O)c1ccncc1 [ISONIAZID]	–	> 40	> 40
O=c1nc(N2CCN(CC3CCCCC3)CC2)sc2c([N+](=O)[O-])cc(C(F)(F)F)cc12 [MACOZINONE]	–	0.232 (≈ 0.508 µM)	0.116 (≈ 0.254 µM)
CO[C@H]1/C=C/O[C@@]2(C)Oc3c(C)c(O)c4c(O)c(c(/C=N/N5CCN(C)CC5)c(O)c4c3C2=O)NC(=O)/C(C)=C\C=C\[C@H](C)[C@H](O)[C@@H](C)[C@@H](O)[C@@H](C)[C@H](OC(C)=O)[C@@H]1C [RIFAMPIN]	–	> 40	> 40
